Test results reported in patent publication US10350311B2, “Iohexol powder and method of using the same” (Otsuka Pharmaceutical Co., Ltd., priority 2014, dated 2019).

Experiments:
Assay type in all cases: physicochemical
[1] = Interparticle spacing calculated from bulk and skeletal density
Method: As used herein, the term “interparticle spacing” denotes the percentage of the “bulk” particle volume which is free space. The interparticle spacing can be calculated from the bulk density and skeletal density. As discussed above, bulk density refers to the density determined by dividing the weight of the sample by its measured volume, for example using the USP <616> method. The skeletal density, sometimes referred to as the “true density,” is determined by dividing the weight of a sample by its “true” volume—i.e., the volume excluding interstitial voids and any open porosity in the sample (e.g., determined by gas displacement techniques).

[2] = Dissolution time in water by Modified United States Pharmacopeia Method 641
Method: As used herein, the term “Modified United States Pharmacopeia Method 641” denotes a modified form of the Standard United States Pharmacopeia Method 641, where the Modified United States Pharmacopeia Method 641 is carried out as follows: • Place 1.8 g of the particulate iohexol in a meticulously clean, glass-stoppered, 50 mL glass cylinder approximately 1:10 diameter to height in size. • Fill 40 mL of tap water adjusted to 10° C. (±2° C.) into the glass cylinder. • Immediately start shaking the glass cylinder and start recording total time. • Shake the glass cylinder with an up and down movement, keeping the frequency at 12-13 movements per 5 seconds. • After 20 seconds observe for 3 seconds for completeness of dissolution. • Evaluate after 3 seconds, when the bubbles disappear, comparing with pure solvent. • If dissolved completely, record “dissolved in 20 seconds”. • If not dissolved completely, continue shaking for a total time 30 sec • Repeat the dissolution evaluation at 30 seconds, 40 seconds, 1 min., and 1 min. 30 seconds. • Always repeat the dissolution evaluation using the same procedure. • If dissolved completely at time point 1 min 30 sec, record “dissolved in NMT 1 min 30 sec”. • If not dissolved, record “not dissolved in 1 min 30 sec”. 20 oz (600 ml) modified beverage PET bottle for Iohexol Powder for Oral Solution product; 50 ml testing glass cylinder; Tap water. Samples were tested using the Modified USP Method <641> as described herein.

[3] = Particle size distribution (D10, D50, D90); details: for Particle Size distribution (μm) D50: Table 6, Example 5; for Particle Size distribution (μm) D10 / Particle Size distribution (μm) D90: Table 6
Source text: As used herein, the “D90” of a particulate material denotes a diameter value for the particles in the material at which about 90% of the particles have a diameter below the diameter value. For example, in a sample with a D90 of 20 μm, 90% of the particles in the sample have a diameter of 20 μm or less. As used herein, the “D50” of a material denotes a diameter value for the particles in the material at which about 50% of the particles have a diameter below the diameter value. For example, in a sample with a D50 of 10 μm, 50% of the particles in the sample have a diameter of 10 μm or less. As used herein, the “D10” of a material denotes a diameter value for the particles in the material at which about 10% of the particles have a diameter below the diameter value. For example, in a sample with a D10 of 5 μm, 10% of the particles in the sample have a diameter of 5 μm or less.

[4] = Bulk density; details: Table 6
Source text: As used herein, the term “bulk density” of a material denotes total mass of the material divided by the total volume occupied by the material. As used herein, the term “interparticle spacing” denotes the percentage of the “bulk” particle volume which is free space. The interparticle spacing can be calculated from the bulk density and skeletal density. As discussed above, bulk density refers to the density determined by dividing the weight of the sample by its measured volume, for example using the USP <616> method. The skeletal density, sometimes referred to as the “true density,” is determined by dividing the weight of a sample by its “true” volume—i.e., the volume excluding interstitial voids and any open porosity in the sample (e.g., determined by gas displacement techniques). Interparticle spacing can be calculated from the bulk density and skeletal density as exemplified herein: if the bulk density of a particular iohexol sample is ˜0.9 g/cm^3, the corresponding “bulk” volume for 1 g of the sample is 1.11 cm^3; and if the skeletal density of the sample is ˜2 g/cm^3, the corresponding “skeletal” volume (i.e. volume with porosity excluded) for 1 g of this sample is 0.5 cm^3. The difference between the “bulk” volume and “skeletal” volume, 0.61 cm^3, represents the volume of the free space (porosity) in the particle. The interparticle spacing is the difference between the “skeletal” volume and bulk volume, divided by the “bulk” volume, expressed as a percentage (i.e. 0.61 cm^3/1.11 cm^3=55% in this example).

[5] = Specific surface area by low-temperature nitrogen adsorption (BET); details: for Specific surface area m^2/g: Table 6, Example 5; for Specific Area measured [m^2/g] / Specific Area estimated [m^2/g] / Relative desorbed amount Ad/Ad(crystallized): Table 5; for Specific Area measured [m^2/g]: BET isotherm, nitrogen adsorption; for Specific Area estimated [m^2/g]: calculated from SEM geometry assuming non-porous spheres; for Relative desorbed amount Ad/Ad(crystallized): nitrogen desorbed relative to crystallized iohexol
Method: Specific surface area was measured using a low-temperature nitrogen adsorption apparatus, a Pulse Chemisorb 2700.
The specific surface area data, which were evaluated using a BET isotherm, support the nonporous nature/character of the particles. The measured value of the specific surface area was about 2.8 m^2/g, which is consistent with the calculation of the specific surface area of hypothetical material which consists of non-porous spheres with a radius of 3 μm. Considering the skeletal density of crystallized iohexol (2.097 g/cm3), the calculated specific surface area of this hypothetical material is about 4 m^2/g. All data provided by analyses appear to support the conclusion that the crystallized iohexol solid material contains agglomerates consisting of small nonporous particles and that the total specific area is the sum of the outer surface areas of these particles.
Experimentally obtained values of the specific surface area are very low, which is typical of macroporous to non-porous materials. Experimental specific surface area values for all samples are in good agreement with the estimated values based on SEM image analysis, (calculating the particle surface area based on the geometrical shape of particles, i.e., and assuming that the particles are not porous (confirmed by mercury porosimetry as discussed above). Individual values and comparisons of the amount of nitrogen desorption for each sample are summarized in Table 5.

[6] = Skeletal density by helium pycnometer; details: for Skeletal density (g/cm3): Table 6; for Skeletal density: Table 5, Example 3
Method: As used herein, the term “interparticle spacing” denotes the percentage of the “bulk” particle volume which is free space. The interparticle spacing can be calculated from the bulk density and skeletal density. As discussed above, bulk density refers to the density determined by dividing the weight of the sample by its measured volume, for example using the USP <616> method. The skeletal density, sometimes referred to as the “true density,” is determined by dividing the weight of a sample by its “true” volume—i.e., the volume excluding interstitial voids and any open porosity in the sample (e.g., determined by gas displacement techniques). […] The porosity of the iohexol particles was also investigated using mercury intrusion, and the skeletal density was determined by helium pycnometer and physical adsorption of nitrogen.

[7] = Exposure to air humidity / moisture uptake; details: exposed to ambient air humidity for 120 hours, SEM
Method: Crystallized iohexol samples were also examined by SME analysis for the influence of air humidity (i.e., humidity of ambient/room air). Crystallized iohexol samples were exposed to air humidity for 120 hours.

CC(=O)N(CC(O)CO)c1c(I)c(C(=O)NCC(O)CO)c(I)c(C(=O)NCC(O)CO)c1I (centres unmarked) [Batch 01206013, iohexol]
Interparticle space (% of bulk volume) ([1]; Table 6, listed as 01206013): 73 % of bulk volume
Dissolution time ([2]; Table 4, 1.8 g in 40 mL tap water at 10° C., manual shaking, listed as 01206013): 40 s
Dissolution time ([2]; Table 6, Example 5, listed as 01206013): 40 s
Particle Size distribution (μm) D50 ([3]; listed as 01206013): 10 μm
Particle Size distribution (μm) D10 ([3]; listed as 01206013): 5 μm
Particle Size distribution (μm) D90 ([3]; listed as 01206013): 15 μm
Bulk density (g/cm3) ([4]; listed as 01206013): 0.56 g/cm3
Specific surface area m^2/g ([5]; listed as 01206013): 4.00 m^2/g

CC(=O)N(CC(O)CO)c1c(I)c(C(=O)NCC(O)CO)c(I)c(C(=O)NCC(O)CO)c1I (centres unmarked) [Batch 03202012/1, iohexol]
Interparticle space (% of bulk volume) ([1]; Table 6, listed as 03202012/1): 56 % of bulk volume
Skeletal density (g/cm3) [6]: 2.0 g/cm3
Dissolution time ([2]; Table 4, 1.8 g in 40 mL tap water at 10° C., manual shaking, listed as 03202012/1): 60 s
Dissolution time ([2]; Table 6, Example 5, listed as 03202012/1): 60 s
Particle Size distribution (μm) D50 ([3]; listed as 03202012/1): 14 μm
Particle Size distribution (μm) D10 ([3]; listed as 03202012/1): 9 μm
Particle Size distribution (μm) D90 ([3]; listed as 03202012/1): 22 μm
Bulk density (g/cm3) ([4]; listed as 03202012/1): 0.90 g/cm3
Specific surface area m^2/g ([5]; listed as 03202012/1): 0.50 m^2/g

CC(=O)N(CC(O)CO)c1c(I)c(C(=O)NCC(O)CO)c(I)c(C(=O)NCC(O)CO)c1I (centres unmarked) [Batch 03202012/8, iohexol]
Interparticle space (% of bulk volume) ([1]; Table 6, listed as 03202012/8): 56 % of bulk volume
Skeletal density (g/cm3) [6]: 2.0 g/cm3
Dissolution time ([2]; Table 4, 1.8 g in 40 mL tap water at 10° C., manual shaking, listed as 03202012/8): 40 s
Dissolution time ([2]; Table 6, Example 5, listed as 03202012/8): 40 s
Particle Size distribution (μm) D50 ([3]; listed as 03202012/8): 12 μm
Particle Size distribution (μm) D10 ([3]; listed as 03202012/8): 7 μm
Particle Size distribution (μm) D90 ([3]; listed as 03202012/8): 19 μm
Bulk density (g/cm3) ([4]; listed as 03202012/8): 0.90 g/cm3
Specific surface area m^2/g ([5]; listed as 03202012/8): 0.50 m^2/g

CC(=O)N(CC(O)CO)c1c(I)c(C(=O)NCC(O)CO)c(I)c(C(=O)NCC(O)CO)c1I (centres unmarked) [Batch 03202012/9, iohexol]
Interparticle space (% of bulk volume) ([1]; Table 6, listed as 03202012/9): 56 % of bulk volume
Skeletal density (g/cm3) [6]: 2.0 g/cm3
Dissolution time ([2]; Table 4, 1.8 g in 40 mL tap water at 10° C., manual shaking, listed as 03202012/9): 60 s
Dissolution time ([2]; Table 6, Example 5, listed as 03202012/9): 60 s
Particle Size distribution (μm) D50 ([3]; listed as 03202012/9): 20 μm
Particle Size distribution (μm) D10 ([3]; listed as 03202012/9): 11 μm
Particle Size distribution (μm) D90 ([3]; listed as 03202012/9): 35 μm
Bulk density (g/cm3) ([4]; listed as 03202012/9): 0.90 g/cm3
Specific surface area m^2/g ([5]; listed as 03202012/9): 0.50 m^2/g

CC(=O)N(CC(O)CO)c1c(I)c(C(=O)NCC(O)CO)c(I)c(C(=O)NCC(O)CO)c1I (centres unmarked) [Batch 03302012, iohexol]
Interparticle space (% of bulk volume) ([1]; Table 6, listed as 03302012): 73 % of bulk volume
Dissolution time ([2]; Table 4, 1.8 g in 40 mL tap water at 10° C., manual shaking, listed as 03302012): 40 s
Dissolution time ([2]; Table 6, Example 5, listed as 03302012): 40 s
Particle Size distribution (μm) D50 ([3]; listed as 03302012): 10 μm
Particle Size distribution (μm) D10 ([3]; listed as 03302012): 5 μm
Particle Size distribution (μm) D90 ([3]; listed as 03302012): 16 μm
Bulk density (g/cm3) ([4]; listed as 03302012): 0.56 g/cm3
Specific surface area m^2/g ([5]; listed as 03302012): 4.00 m^2/g

CC(=O)N(CC(O)CO)c1c(I)c(C(=O)NCC(O)CO)c(I)c(C(=O)NCC(O)CO)c1I (centres unmarked) [CRI, iohexol]
Skeletal density [6]: 2.097 g/mL
Skeletal density ([6]; listed as crystallized iohexol): 2.097 g/mL
Dissolution, in words ([2]; Example 2): dissolved rapidly
Particle Size distribution (μm) D50 ([3]; listed as crystallized iohexol): 10 μm
Specific Area measured [m^2/g] [5]: 2.8 m^2/g
Specific Area measured [m^2/g] ([5]; listed as crystallized iohexol): about 2.8 m^2/g
Specific Area estimated [m^2/g] [5]: 4.0^a m^2/g
Specific Area estimated [m^2/g] ([5]; listed as crystallized iohexol): about 4 m^2/g
Relative desorbed amount Ad/Ad(crystallized) [5]: 1
Specific surface area m^2/g ([5]; listed as crystallized iohexol): about 4 m^2/g
Influence of air humidity on the particles [7]: sintering of originally separated particles was observed

CC(=O)N(CC(O)CO)c1c(I)c(C(=O)NCC(O)CO)c(I)c(C(=O)NCC(O)CO)c1I (centres unmarked) [Conventional Sample #1, iohexol]
Interparticle space (% of bulk volume) ([1]; Table 6): 56 % of bulk volume
Skeletal density (g/cm3) [6]: 2.0 g/cm3
Dissolution time ([2]; Table 6, Example 5): 90 s
Particle Size distribution (μm) D10 [3]: 7 μm
Particle Size distribution (μm) D90 [3]: 61 μm
Particle Size distribution (μm) D50 [3]: 27 μm
Bulk density (g/cm3) [4]: 0.90 g/cm3
Specific surface area m^2/g [5]: 0.50 m^2/g

CC(=O)N(CC(O)CO)c1c(I)c(C(=O)NCC(O)CO)c(I)c(C(=O)NCC(O)CO)c1I (centres unmarked) [Conventional Sample #2, iohexol]
Interparticle space (% of bulk volume) ([1]; Table 6): 56 % of bulk volume
Skeletal density (g/cm3) [6]: 2.0 g/cm3
Dissolution time ([2]; Table 6, Example 5): 90 s
Particle Size distribution (μm) D10 [3]: 7 μm
Particle Size distribution (μm) D90 [3]: 66 μm
Particle Size distribution (μm) D50 [3]: 29 μm
Bulk density (g/cm3) [4]: 0.90 g/cm3
Specific surface area m^2/g [5]: 0.50 m^2/g

CC(=O)N(CC(O)CO)c1c(I)c(C(=O)NCC(O)CO)c(I)c(C(=O)NCC(O)CO)c1I (centres unmarked) [SDI, iohexol]
Skeletal density [6]: 2.029 g/mL
Skeletal density ([6]; listed as spray dried iohexol): 2.029 g/mL
Specific Area measured [m^2/g] [5]: <1 m^2/g
Specific Area measured [m^2/g] ([5]; listed as spray dried iohexol): less than 1 m^2/g
Specific Area estimated [m^2/g] [5]: 0.5^b m^2/g
Relative desorbed amount Ad/Ad(crystallized) [5]: 0.08
Specific surface area m^2/g ([5]; listed as spray dried iohexol): about 0.5 m^2/g
